± gives the standard deviation of the averaged measurements.
How the values were obtained:
Assay in all cases: LOEC (log10 uM (lowest observed effect concentration))
[1] = compound: C=CC(=O)OCCC(F)(F)C(F)(F)C(F)(F)C(F)(F)C(F)(F)C(F)(F)C(F)(F)C(F)(F)F [8:2 Fluorotelomer acrylate]
Method: (§1)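 BioMAP Diversity Plus panel in human primary cell co-cultures, 4 concentrations in duplicate blinded samples. Responses are log10 fold change versus DMSO control, processed with tcpl v2.1.0. A hit is called when responses at any concentration exceed the cutoff (the larger of 3*bmad or log10(1.2)); the lowest observed effect concentration (modl_ga, log10 uM) is reported for hits.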

[2] = compound: Cc1ccc(S(=O)(=O)OCC(F)(F)C(F)(F)C(F)(F)C(F)(F)C(F)(F)C(F)F)cc1 [1H,1H,7H-Perfluoroheptyl 4-methylbenzenesulfonate]
Method: as §1

[3] = compound: C=CC(=O)OCC(F)(F)C(F)(F)C(F)(F)C(F)(F)COC(=O)C=C [1H,1H,6H,6H-Perfluorohexane-1,6-diol diacrylate]
Method: as §1

[4] = compound: OCCCC(F)(F)C(F)(F)C(F)(F)C(F)(F)C(F)(F)C(F)(F)C(F)(F)C(F)(F)F [3-(Perfluorooctyl)propanol]
Method: as §1

[5] = compound: OCC(F)(F)C(F)(F)C(F)(F)C(F)(F)C(F)(F)C(F)(F)C(F)(F)C(F)(F)CO [1H,1H,10H,10H-Perfluorodecane-1,10-diol]
Method: as §1

[6] = compound: FC(F)(I)C(F)(F)C(F)(F)C(F)(F)C(F)(F)C(F)(F)I [1,6-Diiodoperfluorohexane]
Method: as §1

[7] = compound: OCCC(F)(F)C(F)(F)C(F)(F)C(F)(F)C(F)(F)C(F)(F)C(F)(F)C(F)(F)F [8:2 Fluorotelomer alcohol]
Method: as §1

[8] = compound: OC(C(F)(F)F)(C(F)(F)F)C(O)(C(F)(F)F)C(F)(F)F [Perfluoropinacol]
Method: as §1

[9] = compound: O=C(CC(=O)C(F)(F)C(F)(F)C(F)(F)F)c1cccs1 [(Perfluorobutyryl)-2-thenoylmethane]
Method: as §1

[10] = compound: O=C(O)C(F)(F)C(F)(F)C(F)(F)C(F)(F)C(F)(F)C(F)(F)C(F)(F)F [Perfluorooctanoic acid]
Method: as §1

[11] = compound: O=P(O)(O)CCC(F)(F)C(F)(F)C(F)(F)C(F)(F)C(F)(F)C(F)(F)F [2-(Perfluorohexyl)ethylphosphonic acid]
Method: as §1

Test System | LOEC (log10 uM) [1] | LOEC (log10 uM) [2] | LOEC (log10 uM) [3] | LOEC (log10 uM) [4] | LOEC (log10 uM) [5] | LOEC (log10 uM) [6] | LOEC (log10 uM) [7] | LOEC (log10 uM) [8] | LOEC (log10 uM) [9] | LOEC (log10 uM) [10] | LOEC (log10 uM) [11]
KF3CT IL8 down | 1.54 ± 0.34 | 1.3 | 1.3 | 1.3 | 1.78 | 1.07 ± 0.32 |  |  |  |  | 
KF3CT MMP9 down | 1.54 ± 0.34 |  | 1.3 | 1.3 |  | 0.845 | 1.07 ± 0.32 | 1.78 | 0.845 |  | 
hDFCGF Proliferation up |  |  |  |  |  |  |  |  |  | 1.3 | 1.78
